# Experimental data as given in patent US10222381B2, “Water-soluble peptide fluorescence material” (NATIONAL CHIAO TUNG UNIVERSITY, priority 2015, dated 2019).
# Non-standard residues stand in square brackets, D forms with d. Residues, ends and D or L forms follow the SMILES beside them. ξ: configuration not given here. *: point of attachment. X2 = O=C1c2cccc3c(N4CCCCC4)ccc(c23)C(=O)N1CC(=O)*; ξE = NC(CCC(=O)O)C(=O)O
# Assay: Fluorescence intensity and emission wavelength at different pH values
# Assay type: physicochemical
# Details: for color of fluorescence / emission peak: pH 5; for fluorescence intensity: pH 10 to 6; for pH value of the highest fluorescence intensity: pH 10 to 3 tested
# Text: In Experimental Examples 210, 220, 230, 240, 250, 260, 270 and 280, the above water-soluble peptide fluorescence material is respectively placed in environments having a pH value of 10, 9, 8, 7, 6, 5, 4 and 3 for testing. In Experimental Examples 210 to 230, the water-soluble peptide fluorescence material is respectively placed in environments having the pH value of 10, 9 and 8.
# Continuing in FIG. 5, which illustrates a fluorescence intensity and an emission wavelength of the water-soluble peptide fluorescence material of formula (III-10) at different pH values. In Experimental Examples 510, 520, 530, 540, 550, 560, 570 and 580, the water-soluble peptide fluorescence material of formula (III-10) is respectively placed in environments having a pH value of 10, 9, 8, 7, 6, 5, 4 and 3 for testing. In Experimental Examples 510 to 560, the water-soluble peptide fluorescence material is placed in environments having the pH value of 10 to 5, and two emission peaks are shown in FIG. 5. […] Then, the pH value is further decrease to 4 (Experimental Example 570) and 3 (Experimental Example 580), and only the emission peak at about 400 nm is remained, so the observed fluorescence has a color of purple in Experimental Examples 570 and 580. Therefore, the water-soluble peptide fluorescence material of formula (III-10) is able to detect and mark locations of acidic cells by change of the color.
# Continuing in FIG. 7, which illustrates a fluorescence intensity and an emission wavelength of the water-soluble peptide fluorescence material of formula (III-21) at different pH values. In Experimental Examples 710, 720, 730, 740, 750, 760, 770 and 780, the water-soluble peptide fluorescence material of formula (III-21) is respectively placed in environments having a pH value of 10, 9, 8, 7, 6, 5, 4 and 3 for testing. In Experimental Examples 710 to 750, the water-soluble peptide fluorescence material is placed in environments having the pH value of 10 to 6. […] However, the fluorescence intensity of Experimental Examples 780 is decreased when the pH value is decreased from 4 to 3.
# Continuing in FIG. 8, which illustrates a fluorescence intensity and an emission wavelength of the water-soluble peptide fluorescence material of formula (III-22) at different pH values. In Experimental Examples 810, 820, 830, 840, 850, 860, 870 and 880, the water-soluble peptide fluorescence material of formula (III-22) is respectively placed in environments having a pH value of 10, 9, 8, 7, 6, 5, 4 and 3 for testing. In Experimental Examples 810 to 850, the water-soluble peptide fluorescence material is respectively placed in environments having the pH value of 10 to 6. […] In addition, the fluorescence intensity of Experimental Example 860 (pH=5) is 90 times of the fluorescence intensity of Experimental Example 810 […], which represents that the water-soluble peptide fluorescence material has obvious light-emitting interval and easily to identify and detect positions of the acidic cells.
# FIG. 10 illustrates a fluorescence intensity and an emission wavelength of the water-soluble peptide fluorescence material of formula (III-23) at different pH values. In Experimental Examples 1010, 1020, 1030, 1040, 1050, 1060, 1070 and 1080, the water-soluble peptide fluorescence material of formula (III-23) is respectively placed in environments having a pH value of 10, 9, 8, 7, 6, 5, 4 and 3 for testing. In Experimental Examples 1010 to 1050, the water-soluble peptide fluorescence material is respectively placed in environments having the pH value of 10 to 6. […] The water-soluble peptide fluorescence material not only provides obvious marker, but also achieves the same effect of the fluorescence at a low concentration, and thereby reduces the costs.
# FIG. 11 illustrates a fluorescence intensity and an emission wavelength of the water-soluble peptide fluorescence material of formula (III-27) at different pH values. […]
SMILES,color of fluorescence,emission peak,fluorescence intensity,change of fluorescence intensity (pH decreased to 4 and 3),change of fluorescence intensity (pH decreased to 5),color of observed fluorescence (pH 4 and 3),emission peak (only one remained) (pH 4 and 3),color of observed fluorescence (pH 10 to 5),emission peak (first) (pH 10 to 5),emission peak (other) (pH 10 to 5),ratio of fluorescence intensity Experimental Example 860 (pH=5) to Experimental Example 810 (pH=1) [times],pH value of the highest fluorescence intensity,change of fluorescence intensity (pH decreased from 4 to 3),change of fluorescence intensity (pH decreased from 5 to 4)
O=C(O)CCC(NC(=O)C(CCC(=O)O)NC(=O)C(CCC(=O)O)NC(=O)[C@H](Cc1ccccc1)NC(=O)CN1C(=O)c2cccc3c(N4CCCCC4)ccc(c23)C1=O)C(=O)O (stereo partly shown) [III-27] (X2-F[ξE][ξE][ξE]-OH),green,about 525 nm,low fluorescence intensities,significantly increased,significantly increased,–,–,–,–,–,–,–,–,–
O=C(CN1C(=O)c2cccc3cccc(c23)C1=O)NCC(=O)NC(Cc1ccccc1)C(=O)O (stereo not shown) [III-10],–,–,–,–,–,purple,about 400 nm,mixed light of green light and purple light,about 400 nm,about 500 nm,–,–,–,–
O=C(O)C[C@H](NC(=O)[C@H](CC(=O)O)NC(=O)[C@H](Cc1ccccc1)NC(=O)CN1C(=O)c2cccc3c(N4CCCCC4)ccc(c23)C1=O)C(=O)O [III-22],yellow,about 575 nm,low fluorescence intensities,–,significantly increased,–,–,–,–,–,90,5,slightly increased,decreased
O=C(O)CCC(NC(=O)[C@H](Cc1ccccc1)NC(=O)CN1C(=O)c2cccc3c(N4CCCCC4)ccc(c23)C1=O)C(=O)O (stereo partly shown) [III-21],green,about 550 nm,low fluorescence intensities,–,significantly increased,–,–,–,–,–,–,4,decreased,further increased
